According to the supplement of paper PMC10307832:

Assays:
Test in all cases: relative viability (nuclei count vs DMSO), 5 days (fraction); higher = more cells survive
[1] = compound: CCN(CCO)CCCC(C)Nc1ccnc2cc(Cl)ccc12 [Hydroxychloroquine] + O=C(c1cc(Cc2n[nH]c(=O)c3ccccc23)ccc1F)N1CCN(C(=O)C2CC2)CC1 [Olaparib] (partner 8 µM)
Procedure, shortened: (§1)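 Relative viability equals treated-well nuclei counts divided by vehicle-well nuclei counts. Counts came from 4× images of lung cancer cell lines grown in 1536-well plates for 5 days after pin-tool dosing on the day after seeding. Dosing used one drug alone or a fixed anchor-drug dose plus five library-drug doses (not always all listed) in √10 steps, and values are medians of duplicate plates.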

[2] = compound: CCN(CCO)CCCC(C)Nc1ccnc2cc(Cl)ccc12 [Hydroxychloroquine] + NC(=O)Nc1cc(-c2cccc(F)c2)sc1C(=O)N[C@H]1CCCNC1 [AZD7762] (partner 0.2 µM)
Procedure, shortened: as §1

[3] = compound: CCN(CCO)CCCC(C)Nc1ccnc2cc(Cl)ccc12 [Hydroxychloroquine] + CS(=O)(=O)CCNCc1ccc(-c2ccc3ncnc(Nc4ccc(OCc5cccc(F)c5)c(Cl)c4)c3c2)o1 [Lapatinib] (partner 2 µM)
Procedure, shortened: as §1

[4] = compound: CCN(CCO)CCCC(C)Nc1ccnc2cc(Cl)ccc12 [Hydroxychloroquine] + Nc1ncn([C@H]2C[C@H](O)[C@@H](CO)O2)c(=O)n1 [Decitabine] (partner 2 µM)
Procedure, shortened: as §1

Cell Line | relative viability ([1]; first compound 0.5 µM) | relative viability ([1]; first compound 1.581 µM) | relative viability ([1]; first compound 5 µM) | relative viability ([1]; first compound 15.81 µM) | relative viability ([1]; first compound 50 µM) | relative viability ([2]; first compound 0.5 µM) | relative viability ([2]; first compound 1.581 µM) | relative viability ([2]; first compound 5 µM) | relative viability ([2]; first compound 15.81 µM) | relative viability ([2]; first compound 50 µM) | relative viability ([3]; first compound 0.5 µM) | relative viability ([3]; first compound 1.581 µM) | relative viability ([3]; first compound 5 µM) | relative viability ([3]; first compound 15.81 µM) | relative viability ([3]; first compound 50 µM) | relative viability ([4]; first compound 0.5 µM) | relative viability ([4]; first compound 1.581 µM) | relative viability ([4]; first compound 5 µM) | relative viability ([4]; first compound 15.81 µM) | relative viability ([4]; first compound 50 µM)
HCC-827 | 0.645 | 0.618 | 0.591 | 0.54 | 0.561 | 0.207 | 0.227 | 0.237 | 0.264 | 0.22 | 0.202 | 0.222 | 0.212 | 0.183 | 0.205 | 0.323 | 0.302 | 0.317 | 0.301 | 0.279
HOP-62 | 0.368 | 0.232 | 0.443 | 0.496 | 0.394 | 0.448 | 0.968 | 0.661 | 0.626 | 0.732 | 1.07 | 0.889 | 1.1 | 0.98 | 1.04 | 0.209 | 0.239 | 0.206 | 0.207 | 0.206
IA-LM | 0.756 | 0.887 | 0.8 | 0.892 | 0.754 |  |  |  |  |  | 0.863 | 1.09 | 0.862 | 0.869 | 0.795 |  |  |  |  | 
LC-2-ad | 0.673 | 0.664 | 0.738 | 0.725 | 0.772 | 0.898 | 0.822 | 0.842 | 0.832 | 0.85 | 0.977 | 0.958 | 0.979 | 0.999 | 1.02 | 0.732 | 0.777 | 0.776 | 0.744 | 0.854
LCLC-103H | 0.754 | 0.688 | 0.84 | 0.766 | 0.78 | 0.855 | 0.672 | 0.76 | 0.743 | 0.827 |  |  |  |  |  | 0.699 | 0.751 | 0.727 | 0.736 | 0.767
NCI-H441 | 0.543 | 0.551 | 0.498 | 0.547 | 0.553 | 1.16 | 1.47 | 1.25 | 1.5 | 1.11 |  |  |  |  |  | 0.23 | 0.326 | 0.241 | 0.245 | 0.228
NCI-H520 | 0.344 | 0.354 | 0.304 | 0.337 | 0.364 |  |  |  |  |  | 0.934 | 0.898 | 0.857 | 0.958 | 0.978 | 0.532 | 0.549 | 0.513 | 0.491 | 0.526
NCI-H522 | 0.578 |  | 0.68 | 0.642 | 0.608 | 0.712 |  | 0.674 | 0.974 | 0.907 |  |  |  |  |  | 0.689 |  | 0.566 | 0.676 | 0.59
NCI-H661 | 0.782 | 0.695 | 0.743 | 0.684 | 0.69 |  |  |  |  |  | 0.433 | 0.426 | 0.43 | 0.467 | 0.465 | 0.584 | 0.587 | 0.564 | 0.528 | 0.567
NCI-H1563 |  |  |  |  |  |  |  |  |  |  | 0.839 | 0.756 | 0.951 | 0.798 | 0.866 |  |  |  |  | 
NCI-H1648 | 0.766 | 0.965 | 1.01 | 1.06 | 0.926 | 0.657 | 0.758 | 0.575 | 0.531 | 0.562 |  |  |  |  |  | 0.51 | 0.447 | 0.512 | 0.518 | 0.484
NCI-H1650 | 0.804 | 0.781 | 0.788 | 0.881 | 0.917 |  |  |  |  |  | 0.844 | 0.697 | 0.702 | 0.75 | 0.765 | 0.315 | 0.391 | 0.419 | 0.36 | 0.36
NCI-H1703 | 0.424 | 0.431 | 0.556 | 0.467 | 0.446 | 0.196 | 0.159 | 0.135 | 0.114 | 0.137 | 0.959 |  | 1.05 | 1.29 | 0.763 |  |  |  |  | 
NCI-H2009 | 0.672 | 0.72 | 0.7 | 0.698 | 0.695 |  |  |  |  |  | 0.909 | 0.826 | 0.874 | 0.898 | 0.893 | 0.353 | 0.397 | 0.403 | 0.353 | 0.377
NCI-H2023 | 0.566 | 0.405 | 0.501 | 0.479 | 0.466 |  |  |  |  |  | 0.793 | 0.652 | 0.691 | 0.905 | 0.994 | 0.231 | 0.209 | 0.214 | 0.227 | 0.211
NCI-H2228 | 0.716 | 0.75 | 0.575 | 0.653 | 0.623 |  |  |  |  |  | 1.05 | 0.999 | 0.972 | 0.705 | 1.18 |  |  |  |  | 
NCI-H2342 | 0.434 | 0.386 | 0.42 | 0.421 | 0.509 | 0.458 | 0.47 | 0.522 | 0.463 | 0.449 |  |  |  |  |  | 0.774 | 0.765 | 0.782 | 0.756 | 0.769
SK-LU-1 | 0.45 | 0.425 | 0.491 | 0.426 | 0.445 |  |  |  |  |  | 0.932 | 0.845 | 0.896 | 0.871 | 0.909 | 0.605 | 0.631 | 0.664 | 0.557 | 0.762
SK-MES-1 | 0.812 | 0.683 | 0.724 | 0.738 | 0.671 |  |  |  |  |  | 0.515 | 0.418 | 0.487 | 0.472 | 0.449 | 0.389 | 0.304 | 0.419 | 0.361 | 0.366
SW 900 | 0.894 | 0.852 | 0.88 | 0.819 | 0.75 | 0.678 | 0.681 | 0.679 | 0.748 | 0.594 |  |  |  |  |  | 0.398 | 0.445 | 0.422 | 0.417 | 0.41
SW 1573 | 0.504 | 0.484 | 0.432 | 0.472 | 0.458 |  |  |  |  |  | 0.98 | 1.01 | 1.15 | 1.07 | 0.997 | 0.444 | 0.296 | 0.409 | 0.554 | 0.428
UMC-11 | 0.342 | 0.325 | 0.365 | 0.366 | 0.353 |  |  |  |  |  | 0.829 | 0.735 | 0.982 | 1.1 | 1.13 | 0.541 | 0.485 | 0.633 | 0.663 | 0.619
